Literature values, collected in patent US20220287302A1, “COMPOSITIONS FOR PATHOGEN IN[…] PATHOGEN REDUCTION MANAGEMENT” (priority 2020, published 2022).

In the case of `O=c1c(O)c(O)c1=O` [Squaric acid, 3,4-dihydroxy-3-cyclobutene-1,2 dione], the “pKa for the first proton” value (first proton) is given as 1.5 and the “pKa for the second proton” value (second proton) is given as 3.4.
